Consider 15 compounds from patent US7626030B2, “Compounds and methods of use” (Amgen Inc., priority 2004, dated 2009).

Molecules are shown by their SMILES.

The target of one test is T1, c-Met in PC3 cells (Homo sapiens, UniProt P08581).
T1 construct: host or cells: PC3 cells
T1 sequence (P08581 25-1390): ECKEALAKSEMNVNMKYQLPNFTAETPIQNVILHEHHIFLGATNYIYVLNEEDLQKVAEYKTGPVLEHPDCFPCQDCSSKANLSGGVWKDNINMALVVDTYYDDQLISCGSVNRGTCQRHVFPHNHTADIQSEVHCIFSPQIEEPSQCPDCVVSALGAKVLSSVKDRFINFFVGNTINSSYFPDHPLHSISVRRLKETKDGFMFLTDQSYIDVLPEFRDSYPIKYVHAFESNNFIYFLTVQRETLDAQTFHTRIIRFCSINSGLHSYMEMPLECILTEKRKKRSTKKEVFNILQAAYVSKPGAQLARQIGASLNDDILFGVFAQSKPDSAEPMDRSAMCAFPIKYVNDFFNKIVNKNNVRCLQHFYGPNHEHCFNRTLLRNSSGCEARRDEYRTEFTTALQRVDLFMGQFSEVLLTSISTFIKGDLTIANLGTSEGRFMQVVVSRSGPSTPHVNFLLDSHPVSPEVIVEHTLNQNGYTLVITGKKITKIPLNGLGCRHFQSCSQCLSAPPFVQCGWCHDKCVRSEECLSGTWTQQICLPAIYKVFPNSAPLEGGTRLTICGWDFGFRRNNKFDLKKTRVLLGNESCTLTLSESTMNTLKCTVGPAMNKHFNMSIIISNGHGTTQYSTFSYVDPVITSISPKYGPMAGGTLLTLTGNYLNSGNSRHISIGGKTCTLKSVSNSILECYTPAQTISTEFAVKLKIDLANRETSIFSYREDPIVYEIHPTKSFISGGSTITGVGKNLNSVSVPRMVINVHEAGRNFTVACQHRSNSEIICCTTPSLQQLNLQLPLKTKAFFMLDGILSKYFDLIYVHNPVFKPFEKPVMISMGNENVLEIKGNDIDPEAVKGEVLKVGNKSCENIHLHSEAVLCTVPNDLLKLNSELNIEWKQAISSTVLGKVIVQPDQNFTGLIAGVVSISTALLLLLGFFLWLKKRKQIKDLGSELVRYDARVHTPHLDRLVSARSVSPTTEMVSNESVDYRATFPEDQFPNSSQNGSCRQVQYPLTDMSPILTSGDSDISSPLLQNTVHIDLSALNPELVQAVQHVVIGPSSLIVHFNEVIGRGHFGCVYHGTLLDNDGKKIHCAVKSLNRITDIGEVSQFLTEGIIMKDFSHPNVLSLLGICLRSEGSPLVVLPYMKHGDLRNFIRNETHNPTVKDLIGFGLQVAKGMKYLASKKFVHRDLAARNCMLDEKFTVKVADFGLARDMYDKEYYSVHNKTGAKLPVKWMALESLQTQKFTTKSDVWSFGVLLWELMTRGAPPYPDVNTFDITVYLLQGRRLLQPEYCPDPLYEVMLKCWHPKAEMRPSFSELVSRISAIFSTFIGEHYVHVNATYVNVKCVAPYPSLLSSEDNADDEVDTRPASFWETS
Description: c-Met cell-based autophosphorylation assay, PC3 cells. The conditions noted are these: HGF-stimulated. Here is the method:
c-Met Cell-Based Autophosphorylation Assay
Human PC3 and mouse CT26 cells are available obtained from ATCC. The cells were cultured in a growth medium containing RPMI 1640, penicillin/streptomycin/glutamine (1×) and 5% FBS. 2×10^4 cells in medium were plated per well in a 96 well plate and incubated at 37° C. overnight. The cells were serum-starved by replacing the growth media with basic medium (DMEM low glucose+0.1 BSA, 120 μL per well) at 37° C. for 16 h. Compounds (either 1 mM and 0.2 mM) in 100% DMSO were serially diluted (1:3) 3333 fold on a 96 well plate, diluting 1:3 with DMSO from column 1 to 11 (columns 6 and 12 receive no compound). Compound samples (2.4 μL per well) were diluted with basic medium (240 μL) in a 96 well plate. The cells were washed once with basic medium (GIBCO, DMEM 11885-076) then compound solution was added (100 μL). The cells were incubated at 37° C. for 1 h. A (2 mg/mL) solution of CHO-HGF (7.5 μL) was diluted with 30 mL basic medium to provide a final concentration of 500 ng/mL. This HGF-containing media (120 μL) was transferred to a 96 well plate. Compounds (1.2 μL) was added to the HGF-containing media and mixed well. The mixture of media/HGF/compound (100 μL) was added to the cells (final HGF concentration—250 ng/mL) then incubated at 37° C. for 10 min. A cell lysate buffer (20 mL) was prepared containing 1% Triton X-100, 50 mM Tris pH 8.0, 100 mM NaCl, Protease inhibitor (Sigma, #P-8340) 200 μL, Roche Protease inhibitor (Complete, # 1-697-498) 2 tablets, Phosphatase Inhibitor II (Sigma, #P-5726) 200 μL, and a sodium vanadate solution (containing 900 μL PBS, 100 μL 300 mM NaVO3, 6 μl H2O2 (30% stock) and stirred at RT for 15 min) (90 μL). The cells were washed once with ice cold 1×PBS (GIBCO, #14190-136), then lysis buffer (60 μL) was added and the cells were incubated on ice for 20 min.
The IGEN assay was performed as follows: Dynabeads M-280 streptavidin beads were pre-incubated with biotinylated anti-human HGFR (240 μL anti-human-HGFR (R&D system, BAF527 or BAF328) @ 100 μg/mL+360 μL Beads (IGEN #10029+5.4 μL buffer−PBS/1% BSA/0.1% Tween20) by rotating for 30 min at RT. Antibody beads (25 μL) were transferred to a 96 well plate. Cell lysate solution (25 μL) was transferred added and the plate was shaken at RT for 1 h. Anti-phosphotyrosine 4G10 (Upstate 05-321) (19.7 μL antibody+6 mL 1×PBS) (12.5 μL) was added to each well, then incubated for 1 h at RT. Anti-mouse IgG ORI-Tag (ORIGEN #110087) (24 μL Antibody+6 mL buffer) (12.5 μL) was added to each well, then incubated at RT for 30 min. 1×PBS (175 μL) was added to each well and the electrochemiluminescence was read by an IGEN M8. Raw data was analyzed using a 4-parameter fit equation in XLFit. IC50 values are then determined using Grafit software.
Compound `COc1cc2nccc(Oc3ccc4nc(NC(=O)c5ccsc5)sc4c3)c2cc1OC` [Example 46, Thiophene-3-carboxylic acid [6-(6,7-dimethoxy-quinolin-4-yloxy)-benzothiazol-2-yl]-amide] showed an IC50 of less than 1000 nM. `COc1cc2c(Oc3ccc4nc(NC(=O)c5ccccc5)sc4c3)ccnc2cc1OCCCN(C)C` [Example 102, N-(6-((7-((3-(dimethylamino)propyl)oxy)-6-(methoxy)-4-quinolinyl)oxy)-1,3-benzothiazol-2-yl)benzamide] returned an IC50 of less than 1000 nM. As for `COc1cc2c(Oc3ccc4nc(NC(=O)c5ccsc5)sc4c3)ccnc2cc1OCCCN1CCOCC1` [Example 104, N-(6-((6-(methoxy)-7-((3-(4-morpholinyl)propyl)oxy)-4-quinolinyl)oxy)-1,3-benzothiazol-2-yl)-1-3-thiohenecarboxamide], the IC50 is less than 1000 nM. Take `COc1cc2nccc(Oc3ccc4oc(Nc5ccc(Cl)cc5)nc4c3)c2cc1OC` [Example 96, 5-((6,7-bis(methoxy)-4-quinolinyl)oxy)-N-(4-chlorophenyl)-1,3-benzoxazol-2-amine]: the IC50 is less than 1000 nM. `Cc1cc(Oc2ccc3nc(NC(=O)Cc4ccccc4)sc3c2)ccn1` [Example 82, N-[6-(2-Methyl-pyridin-4-yloxy)-benzothiazol-2-yl]-2-phenyl-acetamide] displayed an IC50 of less than 1000 nM.

Another test deals with Human Umbilical Vein Endothelial cells. Description: HUVEC proliferation assay (VEGF-stimulated). As to conditions: read-out: inhibition of VEGF-stimulated HUVEC proliferation, level. It counts as cell-based. Here is the method:
HUVEC Proliferation Assay
Human Umbilical Vein Endothelial cells are purchased from Clonetics, Inc., as cryopreserved cells harvested from a pool of donors. These cells, at passage 1, are thawed and expanded in EBM-2 complete medium, until passage 2 or 3. The cells are trypsinized, washed in DMEM+10% FBS+antibiotics, and spun at 1000 rpm for 10 min. Prior to centrifugation of the cells, a small amount is collected for a cell count. After centrifugation, the medium is discarded, and the cells are resuspended in the appropriate volume of DMEM+10% FBS+antibiotics to achieve a concentration of 3×10^5 cells/mL. Another cell count is performed to confirm the cell concentration. The cells are diluted to 3×10^4 cells/mL in DMEM+10% FBS+antibiotics, and 100 μL of cells are added to a 96-well plate. The cells are incubated at 37° C. for 22 h.
Prior to the completion of the incubation period, compound dilutions are prepared. Five-point, five-fold serial dilutions are prepared in DMSO, at concentrations 400-fold greater than the final concentrations desired. 2.5 μL of each compound dilution are diluted further in a total of 1 mL DMEM+10% FBS+antibiotics (400× dilution). Medium containing 0.25% DMSO is also prepared for the […]. At the 22 h timepoint, the medium is removed from the cells, and 100 μL of each compound dilution is added. The cells are incubated at 37° C. for 2-3 h.
During the compound pre-incubation period, the growth factors are diluted to the appropriate concentrations. Solutions of DMEM+10% FBS+antibiotics, containing either VEGF or bFGF at the following concentrations: 50, 10, 2, 0.4, 0.08, and 0 ng/mL are prepared. For the compound-treated cells, solutions of VEGF at 550 ng/mL or bFGF at 220 ng/mL for 50 ng/mL or 20 ng/mL final concentrations, respectively, are prepared since 10 μL of each will be added to the cells (110 μL final volume). At the appropriate time after adding the compounds, the growth factors are added. VEGF is added to one set of plates, while bFGF is added to another set of plates. For the growth factor control curves, the media on wells B4-G6 of plates 1 and 2 are replaced with media containing VEGF or bFGF at the varying concentrations (50-0 ng/mL). The cells are incubated at 37° C. for an additional 72 h.
At the completion of the 72 h incubation period, the medium is removed, and the cells are washed twice with PBS. After the second wash with PBS, the plates are tapped gently to remove excess PBS, and the cells are placed at −70° C. for at least 30 min. The cells are thawed and analyzed using the CyQuant fluorescent dye (Molecular Probes C-7026), following the manufacturer's recommendations. The plates are read on a Victor/Wallac 1420 workstation at 485 nm/530 nm (excitation/emission). Raw data are collected and analyzed using a 4-parameter fit equation in XLFit. IC50 values are then determined.
For the compound `COc1ccc(NC(=O)Nc2nn(C)c3cc(Oc4ccnc5cc(OC)c(OC)cc45)ccc23)cc1` [Example 145, N-(6-((6,7-bis(methoxy)-4-quinolinyl)oxy)-1-methyl-1H-indazol-3-yl)-N′-(4-(methyloxy)phenyl)urea], the IC50 is less than 500 nM. For `COc1cc2nccc(Oc3ccc4c(NC(=O)c5cc(C(F)(F)F)cc(C(F)(F)F)c5)nn(C)c4c3)c2cc1OC` [Example 138, N-(6-((6,7-bis(methoxy)-4-quinolinyl)oxy)-1-methyl-1H-indazol-3-yl)-3,5-bis(trifluoromethyl)benzamide], the IC50 is less than 500 nM. On to `COc1cc2nccc(Oc3ccc4c(NC(=O)c5cc(Cl)ccn5)nn(C)c4c3)c2cc1OC` [Example 140, N-(6-((6,7-bis(methoxy)-4-quinolinyl)oxy)-1-methyl-1H-indazol-3-yl)-4-chloro-2-pyridinecarboxamide], for which the IC50 was less than 500 nM.

On to `COc1cc2nccc(Oc3ccc4c(NC(=O)c5cccc(C)c5)nn(C)c4c3)c2cc1OC` [Example 139, N-(6-((6,7-bis(methoxy)-4-quinolinyl)oxy)-1-methyl-1H-indazol-3-yl)-3-methylbenzamide], for which the IC50 is less than 500 nM. As to `COc1cc2nccc(Oc3ccc4c(NC(=O)c5ccc(Cl)cc5)nn(C)c4c3)c2cc1OC` [Example 134, N-(6-((6,7-bis(methoxy)-4-quinolinyl)oxy)-1-methyl-1H-indazol-3-yl)-4-chlorobenzamide], the IC50 is less than 500 nM. With `COc1ccc(C(=O)Nc2nn(C)c3cc(Oc4ccnc5cc(OC)c(OC)cc45)ccc23)cc1` [Example 132, N-(6-((6,7-bis(methyloxy)-4-quinolinyl)oxy)-1-methyl-1H-indazol-3-yl)-4-(methyloxy)benzamide], the IC50 was less than 500 nM. Take `COc1cc2nccc(Oc3ccc4c(NC(=O)Nc5ccccc5)nn(C)c4c3)c2cc1OC` [Example 144, N-(6-((6,7-bis(methoxy)-4-quinolinyl)oxy)-1-methyl-1H-indazol-3-yl)-N′-phenylurea]: the IC50 is less than 500 nM. `COc1cc2nccc(Oc3ccc4c(NC(=O)c5ccc(F)c(Cl)c5)nn(C)c4c3)c2cc1OC` [Example 137, N-(6-((6,7-bis(methoxy)-4-quinolinyl)oxy)-1-methyl-1H-indazol-3-yl)-3-chloro-4-fluorobenzamide]: the IC50 is less than 500 nM.

`COc1cc2nccc(Oc3ccc4c(NC(=O)c5ccc(C(F)(F)F)cc5)nn(C)c4c3)c2cc1OC` [Example 135, N-(6-((6,7-bis(methoxy)-4-quinolinyl)oxy)-1-methyl-1H-indazol-3-yl)-4-(trifluoromethyl)benzamide]: the IC50 was less than 500 nM.

For the compound `COc1cc2nccc(Oc3ccc4c(NC(=O)Nc5ccc(C)cc5)nn(C)c4c3)c2cc1OC` [Example 142, N-(6-((6,7-bis(methoxy)quinolinyl)oxy)-1-methyl-1H-indazol-3-yl)-N′-(4-methylphenyl)urea], the IC50 was less than 500 nM.
